Results from publication PMC8159961, “Exploring protein hotspots by optimized fragment pharmacophores” (Nature Communications, 2021).
Values joined by “and” are separate entries in the source; they are usually repeats but may differ in a detail not shown here. Identical values can stand only once. Like-named read-outs stand apart in the source and are kept apart here.

How the values were obtained:
human 5-HT7b receptor = biological target: T1, human 5-HT7b receptor (Homo sapiens, UniProt P34969); assay: GPCR radioligand binding assay, [3H]-5-CT displacement, HEK293 membranes
T1 construct: expressed in transfected cells
T1 sequence (P34969 1-432): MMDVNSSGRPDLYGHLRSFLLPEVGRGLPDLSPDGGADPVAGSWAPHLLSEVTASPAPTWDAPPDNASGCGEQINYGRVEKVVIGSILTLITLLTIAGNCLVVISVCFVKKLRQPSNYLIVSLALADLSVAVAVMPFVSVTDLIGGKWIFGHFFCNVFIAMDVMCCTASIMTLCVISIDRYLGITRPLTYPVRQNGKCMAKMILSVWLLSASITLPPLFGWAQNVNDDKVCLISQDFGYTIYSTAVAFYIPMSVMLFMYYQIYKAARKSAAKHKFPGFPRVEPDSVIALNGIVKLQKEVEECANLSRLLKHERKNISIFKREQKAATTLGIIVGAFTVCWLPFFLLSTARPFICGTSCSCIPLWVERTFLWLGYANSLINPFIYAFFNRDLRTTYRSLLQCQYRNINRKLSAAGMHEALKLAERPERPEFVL

recombinant SETD2 = biological target: T2, recombinant SETD2 (Homo sapiens, UniProt Q9BYW2); assay: SETD2 Chemiluminescence assay (H3K36 tri-methylation); type: biochemical; settings: for SETD2 signal normalised to positive control and internally to compound: nM], replicates
T2 construct: purchased BPS Bioscience 52060
T2 sequence (Q9BYW2 1418-1714 limits assumed): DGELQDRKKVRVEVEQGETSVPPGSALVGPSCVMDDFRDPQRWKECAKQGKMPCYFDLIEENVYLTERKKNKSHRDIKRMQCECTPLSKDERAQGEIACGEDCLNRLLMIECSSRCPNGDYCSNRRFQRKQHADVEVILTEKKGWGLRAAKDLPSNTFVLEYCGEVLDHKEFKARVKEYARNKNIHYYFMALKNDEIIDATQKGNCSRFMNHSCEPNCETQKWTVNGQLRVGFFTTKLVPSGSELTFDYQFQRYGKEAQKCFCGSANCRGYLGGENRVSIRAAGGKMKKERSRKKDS

human 5-HT1A receptor = biological target: T3, human 5-HT1A receptor (Homo sapiens, UniProt P08908); assay: GPCR radioligand binding assay, [3H]-8-OH-DPAT displacement, HEK293 membranes
T3 construct: expressed in transfected cells
T3 sequence (P08908 1-422): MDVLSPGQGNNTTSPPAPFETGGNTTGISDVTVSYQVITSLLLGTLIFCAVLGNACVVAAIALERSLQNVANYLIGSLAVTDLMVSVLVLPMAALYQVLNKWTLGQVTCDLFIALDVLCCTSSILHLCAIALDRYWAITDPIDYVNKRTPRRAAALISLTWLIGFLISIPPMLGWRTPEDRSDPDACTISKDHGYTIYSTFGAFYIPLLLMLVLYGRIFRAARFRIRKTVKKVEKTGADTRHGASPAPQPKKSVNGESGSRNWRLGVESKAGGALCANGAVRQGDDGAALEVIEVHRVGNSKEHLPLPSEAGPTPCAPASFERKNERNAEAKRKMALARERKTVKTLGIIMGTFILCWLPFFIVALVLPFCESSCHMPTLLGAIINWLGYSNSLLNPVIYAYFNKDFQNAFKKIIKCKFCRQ

human 5-HT6 receptor = biological target: T4, human 5-HT6 receptor (Homo sapiens, UniProt P50406); assay: GPCR radioligand binding assay, [3H]-LSD displacement, HEK293 membranes
T4 construct: expressed in transfected cells
T4 sequence (P50406 whole entry): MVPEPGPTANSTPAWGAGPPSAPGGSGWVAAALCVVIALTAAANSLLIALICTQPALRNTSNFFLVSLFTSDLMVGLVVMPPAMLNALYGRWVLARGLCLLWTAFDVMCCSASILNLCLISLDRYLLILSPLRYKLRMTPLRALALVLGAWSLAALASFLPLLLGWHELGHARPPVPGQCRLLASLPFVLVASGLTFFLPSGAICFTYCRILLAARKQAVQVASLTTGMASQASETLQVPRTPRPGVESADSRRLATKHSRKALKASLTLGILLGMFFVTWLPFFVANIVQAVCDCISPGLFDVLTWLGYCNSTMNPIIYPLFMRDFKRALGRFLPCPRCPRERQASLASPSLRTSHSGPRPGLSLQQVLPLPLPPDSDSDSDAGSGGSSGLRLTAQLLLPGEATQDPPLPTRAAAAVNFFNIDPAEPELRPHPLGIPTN

human thrombin = biological target: T5, human thrombin (Homo sapiens, UniProt P00734); assay: Protease inhibitory assay, chromogenic substrate S-2238; type: biochemical
T5 construct: human thrombin; purchased Sigma-Aldrich

bovine factor Xa = biological target: T6, bovine factor Xa (Bos taurus, UniProt P00743); assay: Protease inhibitory assay, chromogenic substrate S-2222; type: biochemical; settings: 1 = hit, 0 = no hit; screening at 200 µM
T6 construct: bovine factor Xa, Chromogenix, 2 nkat/mL; purchased Chromogenix
T6 sequence (P00743 234-492 limits assumed): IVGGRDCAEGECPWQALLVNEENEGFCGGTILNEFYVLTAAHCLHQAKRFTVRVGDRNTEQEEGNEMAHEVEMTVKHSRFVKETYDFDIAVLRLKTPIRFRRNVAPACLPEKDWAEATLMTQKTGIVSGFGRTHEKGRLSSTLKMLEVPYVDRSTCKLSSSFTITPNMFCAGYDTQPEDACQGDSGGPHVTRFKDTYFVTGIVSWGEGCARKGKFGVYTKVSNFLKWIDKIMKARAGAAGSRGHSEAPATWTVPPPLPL
T6 sequence (P00743 41-180 partner limits assumed): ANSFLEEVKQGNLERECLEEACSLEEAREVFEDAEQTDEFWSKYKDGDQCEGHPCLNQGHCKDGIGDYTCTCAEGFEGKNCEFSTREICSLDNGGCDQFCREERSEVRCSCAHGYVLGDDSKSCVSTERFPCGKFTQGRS

[1] = biological target: T7, SARS-CoV-2 NSP3 macrodomain (Severe acute respiratory syndrome coronavirus 2, UniProt P0DTD1); assay: X-ray fragment screening (XChem, crystal soaking); type: binding
SARS-CoV-2 = assay: microbe, parasite or virus in culture; type: cell-based; settings: infected Vero E6 cells
[2] = biological target: T7, SARS-CoV-2 NSP3 macrodomain; assay: NSP3 macrodomain HTRF assay, displacement of ADP-ribose-conjugated biotin peptide; type: binding; settings: HTRF assay, up to 5 mM concentration
[3] = 10 µM, read-out: 5-HT7 % Inhibition by plate position
[4] = 5-HT7, average of exp_1 and exp_2, read-out: %inh 5-HT7 average
[5] = 5-HT7, average, values below 0 and above 100% were set as 0 and 100, read-out: %inh 5-HT7 corrected*
[6] = 5-HT7, replicate exp_1, read-out: %inh 5-HT7 exp_1
[7] = 5-HT7, replicate exp_2, read-out: %inh 5-HT7 exp_2
[8] = 10 µM, read-out: 5-HT1A % Inhibition by plate position
[9] = 5-HT1A, average of exp_1 and exp_2, read-out: %inh 5-HT1A average
[10] = 5-HT1A, average, values below 0 and above 100% were set as 0 and 100, read-out: %inh 5-HT1A corrected*
[11] = 5-HT1A, replicate exp_1, read-out: %inh 5-HT1A exp_1
[12] = 5-HT1A, replicate exp_2, read-out: %inh 5-HT1A exp_2
[13] = 10 µM, read-out: 5-HT6 % Inhibition by plate position
[14] = 5-HT6, average of exp_1 and exp_2, read-out: %inh 5-HT6 average
[15] = 5-HT6, average, values below 0 and above 100% were set as 0 and 100, read-out: %inh 5-HT6 corrected*
[16] = 5-HT6, replicate exp_1, read-out: %inh 5-HT6 exp_1
[17] = 5-HT6, replicate exp_2, read-out: %inh 5-HT6 exp_2
[18] = 1 = hit, 0 = no hit, tested at 10 µM, hit = 50% or stronger inhibition

| SMILES | inhibition at 10 µM (human 5-HT7b receptor; [3]) [%] | inhibition at 10 µM (human 5-HT7b receptor; [4]) [%] | inhibition at 10 µM (human 5-HT7b receptor; [5]) [%] | inhibition at 10 µM (human 5-HT7b receptor; [6]) [%] | inhibition at 10 µM (human 5-HT7b receptor; [7]) [%] | inhibition at 10 µM (human 5-HT1A receptor; [8]) [%] | inhibition at 10 µM (human 5-HT1A receptor; [9]) [%] | inhibition at 10 µM (human 5-HT1A receptor; [10]) [%] | inhibition at 10 µM (human 5-HT1A receptor; [11]) [%] | inhibition at 10 µM (human 5-HT1A receptor; [12]) [%] | inhibition at 10 µM (human 5-HT6 receptor; [13]) [%] | inhibition at 10 µM (human 5-HT6 receptor; [14]) [%] | inhibition at 10 µM (human 5-HT6 receptor; [15]) [%] | inhibition at 10 µM (human 5-HT6 receptor; [16]) [%] | inhibition at 10 µM (human 5-HT6 receptor; [17]) [%] | other results |
| --- | --- | --- | --- | --- | --- | --- | --- | --- | --- | --- | --- | --- | --- | --- | --- | --- |
| CS(=O)(=O)Nc1ccc(C(=O)O)cc1 [SX084] | 9 | 9 | 9 | 5.33 | 13 | 9 | 9 | 9 | 9 | 9 | 38 | 38 | 38 | 38 | 38 | IC50 (recombinant SETD2; chemiluminescence-based enzymatic assay): 500 µM; SETD2 signal normalised to positive control and internally to compound (recombinant SETD2; fragment concentration 4.7 [log): 1.05 and 0.84; SETD2 signal normalised to positive control and internally to compound (recombinant SETD2; fragment concentration 5 [log): 0.76 and 0.6; SETD2 signal normalised to positive control and internally to compound (recombinant SETD2; fragment concentration 5.3 [log): 0.62 and 0.74; SETD2 signal normalised to positive control and internally to compound (recombinant SETD2; fragment concentration 5.6 [log): 0.8 and 0.95; SETD2 signal normalised to positive control and internally to compound (recombinant SETD2; fragment concentration 5.9 [log): 0.66 and 0.73 |
| c1cnc2cccnc2c1 [SX002] | 35 | 35 | 35 | 39 | 31 | 0 | -0.719 | 0 | -9 | 8 | 24 | 24 | 24 | 27 | 21 | experimental hit status, 5-HT7 (human 5-HT7b receptor; [18]): 0; experimental hit status, Thrombin (human thrombin; 1 = hit, 0 = no hit, screening at 200 µM): 1; Ki (human thrombin; plate layout, label = plate position, Cheng-Prusoff, Km 2.6 µM, read-out: Thrombin Ki): 163 µM; experimental hit status, SETD2 (recombinant SETD2; 1 = hit, 0 = no hit): 0; experimental hit status, Factor Xa (bovine factor Xa): 0; experimental hit status, 5-HT1 (human 5-HT1A receptor; [18]): 0; experimental hit status, 5-HT6 (human 5-HT6 receptor; [18]): 0 |
| Clc1ccc2nnnn2n1 [SX054] |  |  |  |  |  |  |  |  |  |  |  |  |  |  |  | X-ray screen result, binding site [1]: identified in the active site; antiviral activity in the cellular assay (in words) (SARS-CoV-2): inactive in cells; activity in the NSP3 enzyme assay (in words) [2]: no activity |
